This is an account of results in patent publication US8389512B2 (priority 2008, dated 2013).

A word on the Cmax: it is the maximum level reached in the sampled fluid or tissue. Usually MRT stands for a mean duration of stay, worked out from the concentration-time curve. By bioavailability is commonly meant dose-corrected exposure relative to a reference, in per cent.

A short description of data set [1]: 4 hr in-vivo study: meloxicam plasma concentration after oral delivery to rats. The note with it: rat.
Description: Male Sprague-Dawley rats, 250-300 g, received with a surgically implanted jugular catheter in place from (Harlan or Taconic Laboratories, USA). Animals were housed one per polycarbonate cage utilizing individual cage cards, with free access to food and water in accordance with NIH guidelines. Animals were quarantined at least 24 hrs after arrival prior to use and patency of the implanted catheter determined on the day of the test. Environmental controls for the animal room were set to maintain 18 to 26° C., a relative humidity of 30 to 70%, a minimum of 10 air changes/hour, and a 12-hour light/12-hour dark cycle. […] Each rat was weighed and the dose volume adjusted accordingly so that the effect of weight variability on results of study was eliminated and that each rat received 1 mg/kg dose.
Briefly, using a gradient elution with a Waters Symmetry C18 column (Waters Inc. USA), LCMS with selective reaction monitoring, protein precipitation of the plasma sample using acetonitrile where an LOQ of 50 ng/ml was achieved. Pharmacokinetic parameters were calculated from individual animal samples using appropriate software (PK Solutions 2.0, Summit Research Services, Montrose, Calif., USA).
The nature of data set [2]: 24 hr in-vivo study: meloxicam plasma concentration and pharmacokinetics after oral (gavage) administration to male rats. The settings on record: for meloxicam plasma concentration / AUC (area under the plasma concentration-time curve at 24 h) / Cmax (peak plasma concentration) / F (bioavailability) / Time to Reach 0.59 μg/ml: male rats, 1 mg/kg oral; for AUC (area under the plasma concentration-time curve at 24 h) / Cmax (peak plasma concentration) / F (bioavailability): mean N = 5; for Time to Reach 0.59 μg/ml: calculated by interpolation of time vs. concentration data. An excerpt: Male Sprague-Dawley rats, 250-300 g, received with a surgically implanted jugular catheter in place from (Harlan or Taconic Laboratories, USA). Animals were housed one per polycarbonate cage utilizing individual cage cards, with free access to food and water in accordance with NIH guidelines. Animals were quarantined at least 24 hrs after arrival prior to use and patency of the implanted catheter determined on the day of the test. Environmental controls for the animal room were set to maintain 18 to 26° C., a relative humidity of 30 to 70%, a minimum of 10 air changes/hour, and a 12-hour light/12-hour dark cycle. Rats historically have been used in safety evaluation and PK screening studies and are recommended by appropriate regulatory agencies. […] Each rat was weighed and the dose volume adjusted accordingly so that the effect of weight variability on results of study was eliminated and that each rat received 1 mg/kg dose.
(§1) Pharmacokinetic parameters were calculated from individual animal samples using appropriate software (PK Solutions 2.0, Summit Research Services, Montrose, Calif., USA).

A short description of data set [3]: IV comparator group, meloxicam pharmacokinetics in rats. The class given is in vivo. The note with it: Sprague-Dawley, rat, plasma, 1 mg/kg, PEG400:DMSO formulation. How it is done: In addition, IV comparator group of 5 rats was used to calculate MAT (mean absorption time) and ka (absorption rate constant) parameters since such parameters cannot be determined for the oral groups.
200 micro liters of blood withdrawn from the indwelling intravenous catheter at 5 minutes, 15 minutes, 30 minutes, 45 minutes, 1, 2, 4, 8, 12 and 24 hours to provide sufficient amount of serum for analysis.
as §1

For data set [4] the following is noted: cited from earlier work.
The nature of data set [5]: Accelerated stability testing of cocrystals (PXRD, FTIR). The settings on record: 2 months at 40° C.
Where [6] appears, read: male, Sprague-Dawley, rat, plasma, po, 1 mg/kg.

Take `Cc1cnc(NC(=O)C2=C(O)c3ccccc3S(=O)(=O)N2C)s1.O=C(O)c1ccccc1O` [Cocrystal 88, Meloxicam:Salicylic Acid Cocrystal Form III (1:1)]: the meloxicam plasma concentration in data set [1] (time 15 min) turned out to be 42.10 µg/mL; in data set [1] (time 30 min) it was 38.19 µg/mL; in data set [1] (time 45 min), 40.48 µg/mL; in data set [1] (time 60 min), 41.18 µg/mL; in data set [1] (time 120 min), 40.50 µg/mL; in data set [1] (time 240 min) it was 49.13 µg/mL. The meloxicam plasma concentration in data set [2] (N = 5, 0.25 hour) was determined as 0.7675 µg/mL; in data set [2] (N = 5, 0.5 hour), 0.8975 µg/mL. Further, the “AUC (area under the plasma concentration-time curve at 24 h)” value in data set [2] is 29600 ng·h/mL. Besides, the “Cmax (peak plasma concentration)” value in data set [2] came to 2230 ng/mL. Further, the “F (bioavailability)” value in data set [2] came to 46.5%. For the same compound, the “Time to Reach 0.59 μg/ml” value in data set [2] is on record as 11.3 min.

`Cc1cnc(NC(=O)C2=C(O)c3ccccc3S(=O)(=O)N2C)s1.Cc1cnc(NC(=O)C2=C(O)c3ccccc3S(=O)(=O)N2C)s1.O=C(O)CCC(=O)O` [Cocrystal 144, Meloxicam:Succinic Acid Cocrystal (2:1)]: the meloxicam plasma concentration in data set [1] (time 0 min) turned out to be 0 µg/mL; in data set [1] (time 15 min), 13.76 µg/mL; in data set [1] (time 45 min) it was 32.54 µg/mL; in data set [1] (time 60 min), 38.13 µg/mL; in data set [1] (time 120 min), 44.02 µg/mL; in data set [1] (time 240 min), 43.47 µg/mL. The meloxicam plasma concentration in data set [2] (N = 5, 0.25 hour) is 0.23 µg/mL. In addition, in data set [2], the “AUC (area under the plasma concentration-time curve at 24 h)” value came out at 28400 ng·h/mL. The “Cmax (peak plasma concentration)” value in data set [2] was 1780 ng/mL. For the same compound, the “F (bioavailability)” value in data set [2] is on record as 44.7%. Further, the “Time to Reach 0.59 μg/ml” value in data set [2] is on record as 45.1 min.

Consider `Cc1cnc(NC(=O)C2=C(O)c3ccccc3S(=O)(=O)N2C)s1` [Meloxicam, (8E)-8-[hydroxy-[(5-methyl-1,3-thiazol-2-yl)amino]methylidene]-9-methyl-10,10-dioxo-10λ^6-thia-9-azabicyclo[4.4.0]deca-1,3,5-trien-7-one, reference compound], for which, in data set [1] (male, Sprague-Dawley, plasma, 1 mg/kg, time 0 min), the concentration at 0 min is 0 ng/mL. This compound also yielded a concentration at 15 min in data set [1] (male, Sprague-Dawley, plasma, 1 mg/kg, time 15 min) of 8190 ng/mL. This compound also came in with a concentration at 30 min in data set [1] (male, Sprague-Dawley, plasma, 1 mg/kg, time 30 min) of 14800 ng/mL. For the same compound, the concentration at 45 min in data set [1] (male, Sprague-Dawley, plasma, 1 mg/kg, time 45 min) stood at 19600 ng/mL. The concentration at 60 min in data set [1] (male, Sprague-Dawley, plasma, 1 mg/kg, time 60 min) was determined as 24000 ng/mL. In addition, the concentration at 120 min in data set [1] (male, Sprague-Dawley, plasma, 1 mg/kg, time 120 min) is 30200 ng/mL. The concentration at 240 min in data set [1] (male, Sprague-Dawley, plasma, 1 mg/kg, time 240 min) was determined as 39400 ng/mL. The “Time to Reach 0.59 μg/ml” value in data set [2] was 270.0 min. Also, in data set [2] (setting [6]), the AUC came to 10000 ng·h/mL, the Cmax turned out to be 590 ng/mL, the MRT worked out at 21.8 h and the bioavailability worked out at 15.7%. In data set [2] (setting [6]), the concentration at 0.0833 hour is 20 ng/mL, the concentration at 0.25 hour came to 190 ng/mL, the concentration at 0.5 hour was determined as 280 ng/mL and the concentration at 0.75 hour worked out at 320 ng/mL. In addition, in data set [2] (setting [6]), the concentration at 1 hour was found to be 390 ng/mL, the concentration at 2 hour was determined as 510 ng/mL, the concentration at 4 hour worked out at 540 ng/mL and the concentration at 8 hour came to 530 ng/mL. Further, in data set [2] (setting [6]), the concentration at 12 hour was found to be 460 ng/mL and the concentration at 24 hour is 240 ng/mL. Further, in data set [3] (read-out: AUC (area under the plasma concentration-time curve at 24 h)), the AUC came out at 63600 ng·h/mL. In addition, the MRT in data set [3] (read-out: MRT (mean residence time)) is 14.7 h. Further, in data set [4] (methanol), the solubility in methanol result is on record as “very slightly soluble”. Besides, in data set [4] (strong acids and bases, compared with water), the “solubility in strong acids and bases” value is listed as “higher solubility”. In addition, the solubility in water entry in data set [4] (water) is recorded as “practically insoluble”.

As to `Cc1cnc(NC(=O)C2=C(O)c3ccccc3S(=O)(=O)N2C)s1.O=C(O)c1ccc2ccccc2c1O` [Cocrystal 76, Meloxicam: 1-Hydroxy-2-Naphthoic Acid Cocrystal (1:1)], the meloxicam plasma concentration in data set [1] (time 0 min) was 0 µg/mL; in data set [1] (time 30 min), 39.24 µg/mL; in data set [1] (time 45 min), 45.29 µg/mL; in data set [1] (time 60 min) it was 44.60 µg/mL; in data set [1] (time 120 min) it was 46.24 µg/mL; in data set [1] (time 240 min) it was 52.24 µg/mL. For the same compound, the meloxicam plasma concentration in data set [2] (N = 5, 0.25 hour) was 2.1 µg/mL; in data set [2] (N = 5, 0.5 hour) it was 2.49 µg/mL. Moreover, the “AUC (area under the plasma concentration-time curve at 24 h)” value in data set [2] came to 62500 ng·h/mL. Besides, in data set [2], the “Cmax (peak plasma concentration)” value came to 4150 ng/mL. Further, in data set [2], the “F (bioavailability)” value came out at 98.3%. Moreover, the “Time to Reach 0.59 μg/ml” value in data set [2] is on record as 6.5 min.

Turning to `Cc1cnc(NC(=O)C2=C(O)c3ccccc3S(=O)(=O)N2C)s1.O=C(O)/C=C\C(=O)O` [Cocrystal 21, Meloxicam:Maleic Acid Cocrystal (1:1)], the meloxicam plasma concentration in data set [1] (time 0 min) is 0.3 µg/mL; in data set [1] (time 15 min) it was 19.77 µg/mL; in data set [1] (time 30 min) it was 26.13 µg/mL; in data set [1] (time 45 min) it was 31.19 µg/mL; in data set [1] (time 60 min) it was 32.84 µg/mL; in data set [1] (time 120 min) it was 35.02 µg/mL. For the same compound, the meloxicam plasma concentration was found to be 42.12 µg/mL in data set [1] (time 240 min); 0.62 µg/mL in data set [2] (N = 5, 0.25 hour); 0.72 µg/mL in data set [2] (N = 5, 0.5 hour). Besides, the “AUC (area under the plasma concentration-time curve at 24 h)” value in data set [2] was determined as 25300 ng·h/mL. The “Cmax (peak plasma concentration)” value in data set [2] was found to be 1490 ng/mL. The “F (bioavailability)” value in data set [2] was 39.8%. For the same compound, the “Time to Reach 0.59 μg/ml” value in data set [2] is given as 13.4 min.

Consider “Meloxicam:Aspirin Cocrystal (1:1) [Cocrystal 73]”, for which the meloxicam plasma concentration in data set [1] (time 0 min) was 0 µg/mL; in data set [1] (time 15 min), 26.94 µg/mL; in data set [1] (time 30 min) it was 42.67 µg/mL; in data set [1] (time 45 min), 50.18 µg/mL; in data set [1] (time 60 min), 52.67 µg/mL; in data set [1] (time 120 min), 59.23 µg/mL. Moreover, the meloxicam plasma concentration in data set [1] (time 240 min) amounted to 60.85 µg/mL; in data set [2] (N = 5, 0.0833 hour), 0.13 µg/mL; in data set [2] (N = 5, 0.25 hour), 0.87 µg/mL; in data set [2] (N = 5, 0.5 hour), 1.14 µg/mL; in data set [2] (N = 5, 0.75 hour), 1.37 µg/mL; in data set [2] (N = 5, 1 hour), 1.74 µg/mL. The meloxicam plasma concentration in data set [2] (N = 5, 2 hour) came out at 2.49 µg/mL; in data set [2] (N = 5, 4 hour) it was 2.51 µg/mL; in data set [2] (N = 5, 8 hour), 2.34 µg/mL; in data set [2] (N = 5, 12 hour), 1.83 µg/mL; in data set [2] (N = 5, 24 hour), 1.16 µg/mL. For the same compound, in data set [2], the “AUC (area under the plasma concentration-time curve at 24 h)” value was found to be 44100 ng·h/mL. For the same compound, the “Cmax (peak plasma concentration)” value in data set [2] was determined as 2700 ng/mL. In data set [2], the “F (bioavailability)” value was 69.4%. For the same compound, the “Time to Reach 0.59 μg/ml” value in data set [2] was 10.6 min. For the same compound, the “Stability in accelerated stability testing (PXRD profiles)” value in data set [5] (75% RH open and closed vials, and 6 months at 40° C. open vial) is on record as “stable for 6 months”. Further, in data set [5] (75% RH, vials open or closed), the “Stability in accelerated stability testing (FTIR profiles)” value is on record as “stable for 2 months”.
